Experiment [1] addresses T1, human AT1 receptor (Homo sapiens, UniProt P30556).
T1 construct: expressed in transfected cells; membrane fraction
T1 sequence (P30556 1-359): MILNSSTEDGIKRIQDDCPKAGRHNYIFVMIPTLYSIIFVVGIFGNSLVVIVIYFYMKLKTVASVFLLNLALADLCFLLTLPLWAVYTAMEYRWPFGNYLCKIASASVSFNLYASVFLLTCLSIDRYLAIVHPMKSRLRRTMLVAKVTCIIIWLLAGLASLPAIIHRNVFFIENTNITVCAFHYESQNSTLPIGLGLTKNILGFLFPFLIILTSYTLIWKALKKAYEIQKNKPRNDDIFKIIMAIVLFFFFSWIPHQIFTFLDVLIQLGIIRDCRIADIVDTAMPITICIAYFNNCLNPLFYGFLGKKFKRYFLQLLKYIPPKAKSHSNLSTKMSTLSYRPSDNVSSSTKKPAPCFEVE
As to the kind of experiment: AT1 receptor antagonistic activity: [125I]-angiotensin II binding assay on human AT1 receptor-expressing CHO-K1 cellular membrane fraction. The conditions noted are these: 22.5 pM [125I]-angiotensin II, 1 hr room temperature. The method, boiled down:
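Competition binding used radiolabelled angiotensin II on stably transfected CHO-K1 membrane fractions in Tris pH 7.4/MgCl2 buffer, optionally containing 0.3 mg/mL fatty acid-free BSA, 1 hr at room temperature. Filtration onto GF/C separated bound tracer, and nonspecific binding was measured with candesartan.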

Experiment [2] addresses T2, human PPARγ (Homo sapiens, UniProt P37231).
T2 construct: expressed in transfected cells
T2 sequence (P37231 1-477 isoform P37231-2): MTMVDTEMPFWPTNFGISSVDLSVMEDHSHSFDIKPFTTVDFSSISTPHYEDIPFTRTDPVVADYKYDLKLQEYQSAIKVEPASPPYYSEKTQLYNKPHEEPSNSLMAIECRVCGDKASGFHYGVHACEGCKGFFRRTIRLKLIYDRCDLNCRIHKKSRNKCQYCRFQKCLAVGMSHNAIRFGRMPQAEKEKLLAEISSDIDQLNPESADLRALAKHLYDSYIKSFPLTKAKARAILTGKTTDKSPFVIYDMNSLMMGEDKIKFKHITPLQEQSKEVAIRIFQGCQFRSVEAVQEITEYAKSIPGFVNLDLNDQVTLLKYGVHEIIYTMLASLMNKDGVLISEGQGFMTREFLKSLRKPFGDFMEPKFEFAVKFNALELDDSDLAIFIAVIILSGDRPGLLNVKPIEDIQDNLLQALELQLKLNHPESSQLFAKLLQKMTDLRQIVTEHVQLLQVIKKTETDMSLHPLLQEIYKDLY
T2 sequence (P19793 1-462 partner): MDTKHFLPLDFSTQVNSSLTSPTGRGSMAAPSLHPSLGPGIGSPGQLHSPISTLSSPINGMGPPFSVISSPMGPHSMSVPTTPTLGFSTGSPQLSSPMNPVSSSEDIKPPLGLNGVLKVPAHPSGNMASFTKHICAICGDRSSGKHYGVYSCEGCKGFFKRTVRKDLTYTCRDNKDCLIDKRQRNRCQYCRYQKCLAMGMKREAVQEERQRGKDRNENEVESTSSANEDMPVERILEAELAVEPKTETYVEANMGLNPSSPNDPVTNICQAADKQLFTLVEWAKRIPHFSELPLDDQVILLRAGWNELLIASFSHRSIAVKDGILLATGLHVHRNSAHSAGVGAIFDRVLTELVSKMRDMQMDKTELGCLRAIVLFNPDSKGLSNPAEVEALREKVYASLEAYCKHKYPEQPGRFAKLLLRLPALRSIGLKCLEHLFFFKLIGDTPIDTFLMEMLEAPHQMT
The experiment is described as follows: PPARγ agonistic activity: luciferase reporter assay in PPARγ:RXRα:4ERPP/CHO-K1 cells. It counts as cell-based. The settings on record: CHO-K1, test compound 10^−6 M; luciferase activity of control compound X (1 μM) = 100%, non-administration group = 0%. The method in brief:
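CHO-K1 cells stably carrying hPPARγ/RXRα and a 4ERPP luciferase reporter, dosed with test compound for 1 day at 37 °C in Ham's F12 with 0.1% fatty acid-free BSA. Luciferase read by luminescence; activity given as % of 1 μM control compound X (100%) versus untreated (0%).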
Background: In a reporter assay the amount or activity of a reporter protein is the signal.

What is called IC50 is the concentration at which inhibition is half-maximal. The low end stands for greater potency, the high end for weaker potency. The compound `CCCc1c(Cc2ccc(-c3ccccc3-c3noc(=O)[nH]3)cc2)c(=O)n(C2CCC3(CC2)OCC(C)(C)CO3)c2ncnn12` [Example 170, 4-(3,3-dimethyl-1,5-dioxaspiro[5.5]undec-9-yl)-6-{[2′-(5-oxo-4,5-dihydro-1,2,4-oxadiazol-3-yl)biphenyl-4-yl]methyl}-7-propyl[1,2,4]triazolo[1,5-a]pyrimidin-5(4H)-one] yielded an IC50 in experiment [1] of 1.6 nM. This compound also displayed an activation at 1 µM in experiment [2] of 20%.
Taken in the same sequence, the figures for `CCCc1c(Cc2ccc(-c3ccccc3-c3noc(=O)[nH]3)cc2)c(=O)n([C@H]2CC[C@H](c3nnc(C)o3)CC2)c2ncnn12` [Example 173, 4-[trans-4-(5-methyl-1,3,4-oxadiazol-2-yl)cyclohexyl]-6-{[2′-(5-oxo-4,5-dihydro-1,2,4-oxadiazol-3-yl)biphenyl-4-yl]methyl}-7-propyl[1,2,4]triazolo[1,5-a]pyrimidin-5(4H)-one] were 1.7 nM and 28%.
Taken in the same sequence, the figures for `CCCc1c(Cc2ccc(-c3ccccc3-c3noc(=O)[nH]3)cc2)c(=O)n(C2CCC3(CC2)OCC(C)(C)O3)c2ncnn12` (centres unmarked) [Example 179, 4-(2,2-dimethyl-1,4-dioxaspiro[4.5]dec-8-yl)-6-{[2′-(5-oxo-4,5-dihydro-1,2,4-oxadiazol-3-yl)biphenyl-4-yl]methyl}-7-propyl[1,2,4]triazolo[1,5-a]pyrimidin-5(4H)-one] were 1.9 nM and 41%.
`CCCc1c(Cc2ccc(-c3ccccc3-c3noc(=O)[nH]3)cc2)c(=O)n(C2CCC3(CC2)OC(C)(C)C(C)(C)O3)c2ncnn12` [Example 180, 6-{[2′-(5-oxo-4,5-dihydro-1,2,4-oxadiazol-3-yl)biphenyl-4-yl]methyl}-7-propyl-4-(2,2,3,3-tetramethyl-1,4-dioxaspiro[4.5]dec-8-yl)[1,2,4]triazolo[1,5-a]pyrimidin-5(4H)-one] had an IC50 in experiment [1] of 3.5 nM. The activation at 1 µM in experiment [2] worked out at 31%.
Taken in the same sequence, the figures for `CCCc1c(Cc2ccc(-c3ccccc3-c3nnn[nH]3)cc2)c(=O)n(C2CCC3(CC2)OC(C)(C)C(C)(C)O3)c2ncnn12` [Example 181, 7-propyl-4-(2,2,3,3-tetramethyl-1,4-dioxaspiro[4.5]dec-8-yl)-6-{[2′-(1H-tetrazol-5-yl)biphenyl-4-yl]methyl}[1,2,4]triazolo[1,5-a]pyrimidin-5(4H)-one] were 3.2 nM and 18%.
Taken in the same sequence, the figures for `CCCc1c(Cc2ccc(-c3ccccc3-c3noc(=O)[nH]3)cc2)c(=O)n([C@H]2CC[C@](C)(OCCO)CC2)c2ncnn12` [Example 183, 4-[trans-4-(2-hydroxyethoxy)-4-methylcyclohexyl]-6-{[2′-(5-oxo-4,5-dihydro-1,2,4-oxadiazol-3-yl)biphenyl-4-yl]methyl}-7-propyl[1,2,4]triazolo[1,5-a]pyrimidin-5(4H)-one] were 2.5 nM and 30%.
Taken in the same sequence, the figures for `CCCc1c(Cc2ccc(-c3ccccc3-c3noc(=O)[nH]3)cc2)c(=O)n([C@H]2CC[C@H](c3cnco3)CC2)c2ncnn12` [Example 184, 4-[trans-4-(1,3-oxazol-5-yl)cyclohexyl]-6-{[2′-(5-oxo-4,5-dihydro-1,2,4-oxadiazol-3-yl)biphenyl-4-yl]methyl}-7-propyl[1,2,4]triazolo[1,5-a]pyrimidin-5(4H)-one] were 2.5 nM and 41%.
As for `CCCc1c(Cc2ccc(-c3ccccc3-c3nnn[nH]3)cc2)c(=O)n([C@H]2CC[C@H](c3cnco3)CC2)c2ncnn12` [Example 185, 4-[trans-4-(1,3-oxazol-5-yl)cyclohexyl]-7-propyl-6-{[2′-(1H-tetrazol-5-yl)biphenyl-4-yl]methyl}[1,2,4]triazolo[1,5-a]pyrimidin-5(4H)-one], the half-maximal inhibitory concentration (IC50) in experiment [1] is 2.3 nM. Moreover, the activation at 1 µM in experiment [2] is 22%.
In the same order, the values of `CCCc1c(Cc2ccc(-c3ccccc3-c3noc(=O)[nH]3)cc2)c(=O)n([C@H]2CC[C@H](OCCCO)CC2)c2ncnn12` [Example 186, 4-[trans-4-(3-hydroxypropoxy)cyclohexyl]-6-{[2′-(5-oxo-4,5-dihydro-1,2,4-oxadiazol-3-yl)biphenyl-4-yl]methyl}-7-propyl[1,2,4]triazolo[1,5-a]pyrimidin-5(4H)-one] are 2.1 nM and 24%.
In the same order, the values of `CCCc1c(Cc2ccc(-c3ccccc3-c3noc(=O)[nH]3)cc2)c(=O)n(C2CCC(=NOC)CC2)c2ncnn12` (centres unmarked) [Example 188, 4-[4-(methoxyimino)cyclohexyl]-6-{[2′-(5-oxo-4,5-dihydro-1,2,4-oxadiazol-3-yl)biphenyl-4-yl]methyl}-7-propyl[1,2,4]triazolo[1,5-a]pyrimidin-5(4H)-one] are 1.9 nM and 25%.
As to `CCCc1c(Cc2ccc(-c3ccccc3-c3noc(=O)[nH]3)cc2)c(=O)n([C@H]2CC[C@](C)(CO)CC2)c2ncnn12` [Example 189, 4-[trans-4-(hydroxymethyl)-4-methylcyclohexyl]-6-{[2′-(5-oxo-4,5-dihydro-1,2,4-oxadiazol-3-yl)biphenyl-4-yl]methyl}-7-propyl[1,2,4]triazolo[1,5-a]pyrimidin-5(4H)-one], in experiment [1], the IC50 stood at 3.1 nM. Further, the activation at 1 µM in experiment [2] came to 35%.
Compound `CCCc1c(Cc2ccc(-c3ccccc3-c3noc(=O)[nH]3)cc2)c(=O)n(C2CCC(=CCO)CC2)c2ncnn12` (centres unmarked) [Example 191, 4-[4-(2-hydroxyethylidene)cyclohexyl]-6-{[2′-(5-oxo-4,5-dihydro-1,2,4-oxadiazol-3-yl)biphenyl-4-yl]methyl}-7-propyl[1,2,4]triazolo[1,5-a]pyrimidin-5(4H)-one] gave an IC50 in experiment [1] of 1.6 nM. This compound also gave an activation at 1 µM in experiment [2] of 34%.
The compound `CCCc1c(Cc2ccc(-c3ccccc3-c3noc(=O)[nH]3)cc2)c(=O)n(C2CCC(=NOC(C)C)CC2)c2ncnn12` (centres unmarked) [Example 193, 4-{4-[(1-methylethoxy)imino]cyclohexyl}-6-{[2′-(5-oxo-4,5-dihydro-1,2,4-oxadiazol-3-yl)biphenyl-4-yl]methyl}-7-propyl[1,2,4]triazolo[1,5-a]pyrimidin-5(4H)-one] came in with an IC50 in experiment [1] of 2 nM. In experiment [2], this compound displayed an activation at 1 µM of 28%.
In the case of `CCCc1c(Cc2ccc(-c3ccccc3-c3noc(=O)[nH]3)cc2)c(=O)n(C2CCC(=NOC3CCOCC3)CC2)c2ncnn12` (centres unmarked) [Example 195, 6-{[2′-(5-oxo-4,5-dihydro-1,2,4-oxadiazol-3-yl)biphenyl-4-yl]methyl}-7-propyl-4-{4-[(tetrahydro-2H-pyran-4-yloxy)imino]cyclohexyl}[1,2,4]triazolo[1,5-a]pyrimidin-5(4H)-one], in experiment [1], the IC50 was determined as 2.5 nM. The compound further came in with an activation at 1 µM in experiment [2] of 19%.
For `CCCc1c(Cc2ccc(-c3ccccc3-c3noc(=O)[nH]3)cc2)c(=O)n([C@H]2CC[C@H](OCC(O)(CC)CC)CC2)c2nc(C)nn12` [Example 197, 4-[trans-4-(2-ethyl-2-hydroxybutoxy)cyclohexyl]-2-methyl-6-{[2′-(5-oxo-4,5-dihydro-1,2,4-oxadiazol-3-yl)biphenyl-4-yl]methyl}-7-propyl[1,2,4]triazolo[1,5-a]pyrimidin-5(4H)-one], the IC50 in experiment [1] was determined as 2 nM. In experiment [2], this compound gave an activation at 1 µM of 17%.
The compound `CCCc1c(Cc2ccc(-c3ccccc3-c3noc(=O)[nH]3)cc2)c(=O)n([C@H]2CC[C@]3(CC2)CC(C)=NO3)c2ncnn12` [Example 204, 4-[(5R,8R)-3-methyl-1-oxa-2-azaspiro[4.5]dec-2-en-8-yl]-6-{[2′-(5-oxo-4,5-dihydro-1,2,4-oxadiazol-3-yl)biphenyl-4-yl]methyl}-7-propyl[1,2,4]triazolo[1,5-a]pyrimidin-5(4H)-one] had an IC50 in experiment [1] of 2.7 nM. This compound gave an activation at 1 µM in experiment [2] of 26%.

Source of the values: US8283353B2, “Fused ring compound and use thereof” (Takeda Pharmaceutical Company Limited, priority 2009, dated 2012).
